The values that follow come from BindingDB's records for doi:10.1021/jm015552m (Universita' Degli Studi Di Siena, 2001).

As usually defined, the EC50 is the concentration needed to bring the measured effect to its halfway point. In general, Ki refers to a measure of affinity in units of concentration, obtained from inhibition or displacement. Higher therefore signals a looser hold on the target.

Test [1] addresses Glutamate receptor 1 (Rattus norvegicus) (UniProt P19490). Nature of the test: The potency at recombinant rat AMPA-R was measured on GluR1 receptor expressed in Xenopus Laevis oocytes.
Test [2] shares this target. Nature of the test: Binding affinity towards GluR1 receptor from rat brain.

Sequence of Glutamate receptor 1 (Rattus norvegicus) (P19490 whole entry, looked up): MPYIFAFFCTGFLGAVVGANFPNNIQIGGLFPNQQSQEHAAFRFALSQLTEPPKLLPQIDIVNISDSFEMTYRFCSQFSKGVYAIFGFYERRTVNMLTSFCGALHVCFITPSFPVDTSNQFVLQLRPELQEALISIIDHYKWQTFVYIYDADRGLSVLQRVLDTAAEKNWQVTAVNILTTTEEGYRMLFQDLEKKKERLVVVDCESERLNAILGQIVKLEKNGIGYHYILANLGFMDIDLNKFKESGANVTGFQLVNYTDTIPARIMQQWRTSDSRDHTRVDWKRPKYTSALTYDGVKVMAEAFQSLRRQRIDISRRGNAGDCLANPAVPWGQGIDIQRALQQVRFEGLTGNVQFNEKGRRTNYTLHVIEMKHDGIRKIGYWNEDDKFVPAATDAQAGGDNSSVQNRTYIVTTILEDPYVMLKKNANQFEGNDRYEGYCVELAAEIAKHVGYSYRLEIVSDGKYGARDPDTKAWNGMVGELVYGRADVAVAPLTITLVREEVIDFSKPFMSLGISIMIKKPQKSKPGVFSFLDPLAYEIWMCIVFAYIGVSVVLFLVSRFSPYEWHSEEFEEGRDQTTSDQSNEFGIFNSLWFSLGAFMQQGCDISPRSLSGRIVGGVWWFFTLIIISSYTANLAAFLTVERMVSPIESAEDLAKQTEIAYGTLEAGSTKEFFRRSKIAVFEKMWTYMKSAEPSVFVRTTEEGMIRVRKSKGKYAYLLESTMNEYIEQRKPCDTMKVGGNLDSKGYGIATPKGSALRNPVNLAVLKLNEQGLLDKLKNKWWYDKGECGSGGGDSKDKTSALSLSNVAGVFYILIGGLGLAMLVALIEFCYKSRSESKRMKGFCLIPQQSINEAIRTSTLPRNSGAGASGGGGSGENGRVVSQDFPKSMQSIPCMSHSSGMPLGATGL

As to `N[C@@H](Cn1c2c(c(=O)[nH]c1=O)CCC2)C(=O)O` [2-Amino-3-(2,4-dioxo-2,3,4,5,6,7-hexahydro-cyclopentapyrimidin-1-yl)-propionic acid], the concentration for a half-maximal effect (EC50) in test [1] is 24.9 µM. In test [2], this compound came in with a Ki of 0.109 µM.
